US8492395B2, “7-substituted quinazolinone compounds and compositions comprising the same” (Celgene Corporation, priority 2007, dated 2013)

Legend:
Namalwa AG4 cells = test: Cell proliferation assay (3H-thymidine incorporation); type: cell-based; details: one collective range stated for the tested compounds, read-out: IC50 values for inhibiting proliferation of Namalwa AG4 cells
Method: 5.48.3 Cell Proliferation Assay
Cell lines Namalwa, MUTZ-5, and UT-7 are obtained from the Deutsche Sammlung von Mikroorganismen und Zellkulturen GmbH (Braunschweig, Germany). The cell line KG-1 is obtained from the American Type Culture Collection (Manassas, Va., USA). Cell proliferation as indicated by ^3H-thymidine incorporation is measured in all cell lines as follows.
Cells are plated in 96-well plates at 6000 cells per well in media. The cells are pre-treated with compounds at about 100, 10, 1, 0.1, 0.01, 0.001, 0.0001 and 0 μM in a final concentration of about 0.25% DMSO in triplicate at 37° C. in a humidified incubator at 5% CO2 for 72 hours. One microcurie of 3H-thymidine (Amersham) is then added to each well, and cells are incubated again at 37° C. in a humidified incubator at 5% CO2 for 6 hours. The cells are harvested onto UniFilter GF/C filter plates (Perkin Elmer) using a cell harvester (Tomtec), and the plates are allowed to dry overnight. Microscint 20 (Packard) (25 μl/well) is added, and plates are analyzed in TopCount NXT (Packard). Each well is counted for one minute. Percent inhibition of cell proliferation is calculated by averaging all triplicates and normalizing to the DMSO control (0% inhibition). Each compound is tested in each cell line in three separate experiments. Final IC50s are calculated using non-linear regression, sigmoidal dose-response, constraining the top to 100% and bottom to 0%, allowing variable slope. (GraphPad Prism v3.02).
Abilities of certain compounds for inhibiting proliferation of Namalwa AG4 cells were determined using procedures substantially similar to those described in Section 5.48.3, above.

melting point | SMILES | IC50 (Namalwa AG4 cells) [µM]
267 to 269 °C | Cc1nc2ccc(CNC(=O)c3ccc(Cl)cc3)cc2c(=O)n1C1CCC(=O)NC1=O (stereo not shown) [4-chloro-N-[3-(2,6-dioxo-piperidin-3-yl)-2-methyl-4-oxo-3,4-dihydro-quinazolin-6-ylmethyl]-benzamide] | –
305 °C (dec.) | Cc1ccc2c(=O)n(C3CCC(=O)NC3=O)c(C)nc2c1 (stereo not shown) [3-(2,7-dimethyl-4-oxo-4H-quinazolin-3-yl)-piperidine-2,6-dione] | –
200 to 202 °C | Cc1cccc(NC(=O)NCc2ccc3nc(C)n(C4CCC(=O)NC4=O)c(=O)c3c2)c1 (stereo not shown) [1-[3-(2,6-dioxo-piperidin-3-yl)-2-methyl-4-oxo-3,4-dihydro-quinazolin-6-ylmethyl]-3-m-tolyl-urea] | 0.01 to 5.5
186 to 188 °C | Cc1ccc(NC(=O)NCc2ccc3nc(C)n(C4CCC(=O)NC4=O)c(=O)c3c2)cc1Cl (stereo not shown) [1-(3-chloro-4-methyl-phenyl)-3-[3-(2,6-dioxo-piperidin-3-yl)-2-methyl-4-oxo-3,4-dihydro-quinazolin-6-ylmethyl]-urea] | 0.01 to 5.5
277 to 279 °C | Cc1nc2cc(C(F)(F)F)ccc2c(=O)n1C1CCC(=O)NC1=O (stereo not shown) [Example 5.32, 3-(2-methyl-4-oxo-7-trifluoromethyl-4H-quinazolin-3-yl)-piperidine-2,6-dione] | –
223 to 225 °C | CCCCCCC(=O)NCc1ccc2nc(C)n(C3CCC(=O)NC3=O)c(=O)c2c1 (stereo not shown) [heptanoic acid [3-(2,6-dioxo-piperidin-3-yl)-2-methyl-4-oxo-3,4-dihydro-quinazolin-6-ylmethyl]-amide] | 0.01 to 5.5
313 to 315 °C | Cc1nc2cc(CN)ccc2c(=O)n1C1CCC(=O)NC1=O.Cl (stereo not shown) | –
212.5 to 214.5 °C | Cc1nc2ccc(CNC(=O)OC(C)(C)C)cc2c(=O)n1C1CCC(=O)NC1=O (stereo not shown) [Example 5.11, [3-(2,6-dioxo-piperidin-3-yl)-2-methyl-4-oxo-3,4-dihydro-quinazolin-6-ylmethyl]-carbamic acid tert-butyl ester] | –
351 to 353 °C | Cc1nc2c(C(F)(F)F)cccc2c(=O)n1C1CCC(=O)NC1=O (stereo not shown) [3-(2-methyl-4-oxo-8-trifluoromethyl-4H-quinazolin-3-yl)-piperidine-2,6-dione] | –
290 to 292 °C | Cc1nc2c(Cl)cccc2c(=O)n1C1CCC(=O)NC1=O (stereo not shown) [Example 5.40, 3-(8-chloro-2-methyl-4-oxo-4H-quinazolin-3-yl)-piperidine-2,6-dione] | –
273 to 275 °C | Cc1nc2ccc(F)cc2c(=O)n1C1CCC(=O)NC1=O (stereo not shown) [Example 5.3, 3-(6-fluoro-2-methyl-4-oxo-4H-quinazolin-3-yl)-piperidine-2,6-dione] | –
307 to 309 °C | Cc1nc2c(Br)cccc2c(=O)n1C1CCC(=O)NC1=O (stereo not shown) [3-(8-bromo-2-methyl-4-oxo-4H-quinazolin-3-yl)-piperidine-2,6-dione] | –
296 to 298 °C | Cc1cccc2c(=O)n(C3CCC(=O)NC3=O)c(C)nc12 (stereo not shown) [3-(2,8-dimethyl-4-oxo-4H-quinazolin-3-yl)-piperidine-2,6-dione] | –
302 to 305 °C | O=C1CCC(n2cnc3ccc(Cl)cc3c2=O)C(=O)N1 (stereo not shown) [Example 5.7, 3-(6-chloro-4-oxo-4H-quinazolin-3-yl)-piperidine-2,6-dione] | –
– | Cc1nc2ccc(CNC(=O)c3ccc(Cl)c(Cl)c3)cc2c(=O)n1C1CCC(=O)NC1=O (stereo not shown) [3,4-dichloro-N-[3-(2,6-dioxo-piperidin-3-yl)-2-methyl-4-oxo-3,4-dihydro-quinazolin-6-ylmethyl]-benzamide] | 0.01 to 5.5
220 to 222 °C | Cc1nc2ccc(CNC(=O)c3cccc(C(F)(F)F)c3)cc2c(=O)n1C1CCC(=O)NC1=O (stereo not shown) [N-[3-(2,6-dioxo-piperidin-3-yl)-2-methyl-4-oxo-3,4-dihydro-quinazolin-6-ylmethyl]-3-trifluoromethyl-benzamide] | 0.01 to 5.5
290 to 292 °C | Cc1cccc2c(=O)n(C3CCC(=O)NC3=O)cnc12 (stereo not shown) [Example 5.44, 3-(8-methyl-4-oxo-4H-quinazolin-3-yl)-piperidine-2,6-dione] | –

melting point | SMILES | IC50 (Namalwa AG4 cells) [µM]
240 to 242 °C | Cc1nc2cc(CNC(=O)OC(C)(C)C)ccc2c(=O)n1C1CCC(=O)NC1=O (stereo not shown) [Example 5.36, [3-(2,6-dioxo-piperidin-3-yl)-2-methyl-4-oxo-3,4-dihydro-quinazolin-7-ylmethyl]-carbamic acid tert-butyl ester] | –
313 to 315 °C | Cc1ccc2c(=O)n(C3CCC(=O)NC3=O)cnc2c1 (stereo not shown) [Example 5.34, 3-(7-methyl-4-oxo-4H-quinazolin-3-yl)-piperidine-2,6-dione] | –
296 to 298 °C | O=C1CCC(n2cnc3cc(F)ccc3c2=O)C(=O)N1 (stereo not shown) [Example 5.33, 3-(7-fluoro-4-oxo-4H-quinazolin-3-yl)-piperidine-2,6-dione] | –
325 °C (dec.) | COc1cc2nc(C)n(C3CCC(=O)NC3=O)c(=O)c2cc1OC (stereo not shown) [3-(6,7-dimethoxy-2-methyl-4-oxo-4H-quinazolin-3-yl)-piperidine-2,6-dione] | –
276 to 278 °C | Cc1nc2ccc(Cl)cc2c(=O)n1C1CCC(=O)NC1=O (stereo not shown) [Example 5.4, 3-(6-chloro-2-methyl-4-oxo-4H-quinazolin-3-yl)-piperidine-2,6-dione] | –
266 to 268 °C | Cc1nc2c(O)cccc2c(=O)n1C1CCC(=O)NC1=O (stereo not shown) [3-(8-hydroxy-2-methyl-4-oxo-4H-quinazolin-3-yl)-piperidine-2,6-dione] | –
264 to 268 °C | Cc1nc2ccc(CNC(=O)N(C)C)cc2c(=O)n1C1CCC(=O)NC1=O (stereo not shown) [Example 5.15, 3-[3-(2,6-dioxo-piperidin-3-yl)-2-methyl-4-oxo-3,4-dihydro-quinazolin-6-ylmethyl]-1,1-dimethyl-urea] | –
299 to 301 °C | Cc1nc2ccc(CN)cc2c(=O)n1C1CCC(=O)NC1=O.Cl (stereo not shown) | –
169 to 171 °C | Cc1nc2ccc(CNC(=O)c3ccc(SC(F)(F)F)cc3)cc2c(=O)n1C1CCC(=O)NC1=O (stereo not shown) [N-[3-(2,6-dioxo-piperidin-3-yl)-2-methyl-4-oxo-3,4-dihydro-quinazolin-6-ylmethyl]-4-trifluoromethyl-sulfanyl-benzamide] | 0.01 to 5.5
225 to 227 °C | Cc1nc2ccc(CNC(=O)Nc3ccc(Cl)cc3)cc2c(=O)n1C1CCC(=O)NC1=O (stereo not shown) [1-(4-chloro-phenyl)-3-[3-(2,6-dioxo-piperidin-3-yl)-2-methyl-4-oxo-3,4-dihydro-quinazolin-6-ylmethyl]-urea] | 0.01 to 5.5
238 to 240 °C | Cc1nc2c(Cl)cc(Cl)cc2c(=O)n1C1CCC(=O)NC1=O (stereo not shown) [Example 5.46, 3-(6,8-dichloro-2-methyl-4-oxo-4H-quinazolin-3-yl)-piperidine-2,6-dione] | –
281 to 283 °C | Cc1nc2ccc(CNC(=O)C3CC3)cc2c(=O)n1C1CCC(=O)NC1=O (stereo not shown) [cyclopropanecarboxylic acid [3-(2,6-dioxo-piperidin-3-yl)-2-methyl-4-oxo-3,4-dihydro-quinazolin-6-ylmethyl]-amide] | –
165 to 167 °C | Cc1nc2ccc(CNC(=O)c3ccc(OC(F)(F)F)cc3)cc2c(=O)n1C1CCC(=O)NC1=O (stereo not shown) [N-[3-(2,6-dioxo-piperidin-3-yl)-2-methyl-4-oxo-3,4-dihydro-quinazolin-6-ylmethyl]-4-trifluoromethoxy-benzamide] | 0.01 to 5.5
285 to 287 °C | Cc1ccc2ncn(C3CCC(=O)NC3=O)c(=O)c2c1 (stereo not shown) [Example 5.9, 3-(6-methyl-4-oxo-4H-quinazolin-3-yl)-piperidine-2,6-dione] | –
270 to 272 °C | Cc1ccc2nc(C)n(C3CCC(=O)NC3=O)c(=O)c2c1 (stereo not shown) [Example 5.1, 3-(2,6-dimethyl-4-oxo-4H-quinazolin-3-yl)-piperidine-2,6-dione] | –
229.5 to 231.5 °C | Cc1nc2ccc(CNC(=O)Cc3ccc(Cl)cc3)cc2c(=O)n1C1CCC(=O)NC1=O (stereo not shown) [2-(4-chloro-phenyl)-N-[3-(2,6-dioxo-piperidin-3-yl)-2-methyl-4-oxo-3,4-dihydro-quinazolin-6-ylmethyl]-acetamide] | 0.01 to 5.5
221 to 223 °C | Cc1nc2ccc(CNC(=O)c3ccc(C(F)(F)F)cc3)cc2c(=O)n1C1CCC(=O)NC1=O (stereo not shown) [N-[3-(2,6-dioxo-piperidin-3-yl)-2-methyl-4-oxo-3,4-dihydro-quinazolin-6-ylmethyl]-4-trifluoromethyl-benzamide] | 0.01 to 5.5
